Experimental data published in patent EP2440195B1, “USE OF ALKYLGLYCEROLS FOR PREPARING DRUGS” (Université de Rennes I, priority 2009, dated 2010).

Columns and labels:
[1] = test system: cellules du carcinome pulmonaire de Lewis; assay: Survival and tumour growth in mice grafted with Lewis lung carcinoma, five diets (alkylglycerol 18:1 and/or DFMO, normal or polyamine-deficient diet); assay type: in vivo, souris C57BL/6
Text: Cette figure représente les variations de volume de tumeurs (en mm^3, indiqués en ordonnées) en fonction du nombre de jours (indiqués en abscisses) écoulés après la greffe de ladite tumeur chez des souris C57BL/6. Les souris sont greffées avec une tumeur solide de cellules du carcinome pulmonaire de Lewis.
(§1) Cette figure représente le pourcentage de survie (en ordonnées) de souris C57BL/6, en fonction du nombre de jours (en abscisses) écoulés après la greffe d'une tumeur solide de cellules du carcinome pulmonaire de Lewis. La représentation utilisée est sous forme de graphique de Kaplan-Meier, le test statistique Log-Rank est utilisé pour la comparaison de la survie (fiabilité p < 0,0001).
(§2) Des souris femelles C57BL/6, âgées de 8 semaines et pesant 20g (élevage Janvier, Le Genest St Isle, France) sont acclimatées 1 semaine avant le début de l'étude. La manipulation des animaux est réalisée en accord avec les directives éthiques pour l'expérimentation et selon les recommandations de l'Association Européenne de Recherche Biomédicale.
(§3) Les cellules de carcinome pulmonaire de Lewis (3LL) ont été obtenues auprès de l'ECACC (European collection of cell cultures) et greffées par injection intramusculaire dans les pattes postérieures de souris femelles C57BL/6 selon la méthode décrite précédemment (Hergueux J. et al., Exp. Cell Biol., 1983, 51(4), 181-191) pour produire des cellules tumorales. Après 20 jours, les cellules tumorales sont collectées et dispersées dans du PBS, comptées et diluées pour atteindre 1 ×10^6 cellules / 100 µL, avant d'être greffées dans les souris.
Le modèle animal (souris C57BL/5) et le modèle tumoral (carcinome de Lewis) sont décrits précédemment. Les souris sont greffées avec […] tumorales, par injection intramusculaire. […]

[2] = test system: cellules du carcinome pulmonaire de Lewis; assay: Survival study by diet (PDD or PCD) and alkylglycerol 18:1 or olive oil, Lewis lung carcinoma graft; assay type: in vivo, souris C57BL/6; conditions: for différence dans la valeur de survie médiane: Log-Rank; for valeur médiane de survie: 25 mice per group
Text: as §1, with “souris,” for “souris C57BL/6,”, “Lewis. Les souris sont réparties en 2 groupes de 25 individus. Les deux groupes sont alimentés avec des régimes alimentaires différents. Les valeurs médianes de survie sont observées.” for “Lewis.”, “survie.” for “survie (fiabilité p < 0,0001).”
as §2, §3
Au premier jour de l'expérience, 0,1 ×10^6 cellules tumorales sont greffées par injection intramusculaire, à chaque souris. Les souris greffées sont réparties aléatoirement dans les cages par groupe de 25 individus.
Quatre groupes sont constitués, chacun comprenant 25 souris greffées avec des cellules tumorales. Les souris sont réparties dans 8 cages avec 12 à 13 individus par cage. Chaque groupe de souris comprend les individus de deux cages. Chaque groupe de souris est alimenté avec un régime alimentaire différent. La consommation d'aliments est suivie deux fois par semaine, et le nombre de décès deux fois par jour.
Les quatre types de régime alimentaire sont : • régime 1, aliment synthétique appauvri en polyamines (PDD) et enrichi en huile d'olive (20 g / kg d'aliment), • régime 2, aliment synthétique appauvri en polyamines (PDD) et enrichi en alkylglycérol 18 :1 (25 mg par jour et par souris), • régime 3, aliment synthétique contenant des polyamines (PCD), enrichi en huile d'olive (20 g / kg d'aliment), • régime 4, aliment synthétique contenant des polyamines (PCD), enrichi en alkylglycérol 18 :1 (25 mg par jour et par souris).

carcinome de Lewis = assay: Antitumour agent Example 2: chemotherapy with PCD/PDD diets, DFMO and alkylglycerol C18:1, Lewis carcinoma graft; assay type: in vivo, souris C57BL/5
Experimental: Le modèle animal (souris C57BL/5) et le modèle tumoral (carcinome de Lewis) sont décrits précédemment. Les souris sont greffées avec 0,1 ×10^6 cellules tumorales, par injection intramusculaire.
Quatres ensembles d'animaux sont constitués : A, B, C et D. • L'ensemble A est traité avec une monochimiothérapie a forte dose (cyclophosphamide, 90 mg / kg / semaine). • L'ensemble B est traité avec une monochimiothérapie a faible dose (cyclophosphamide, 20 mg / kg / semaine). • L'ensemble C est traité avec une polychimiothérapie combinant trois agents antitumoraux (methotrexate, cyclophosphamide, vindesine). Le premier jour de l'expérience l'ensemble C est traité avec le methotrexate (1,7 mg / kg). Le second jour de l'expérience l'ensemble C est traité avec le cyclophosphamide (20 mg / kg). Le troisième jour de l'expérience l'ensemble C est traité avec la vindesine (0,25 mg/kg). • L'ensemble D est traité avec une solution saline (NaCl, 0,14 M), il s'agit d'un groupe témoin.
Pour chacun des 4 ensembles, les souris sont réparties en 8 groupes (soit 32 groupes au total) en fonction de leurs alimentations : • Le groupe 1a : aliment synthétique contenant des polyamines (PCD), • le groupe 1b : aliment synthétique contenant des polyamines (PCD), et avec une eau contenant du DFMO, • le groupe 1c : aliment synthétique contenant des polyamines (PCD), enrichi en alkylglycérol, • le groupe 1d : aliment synthétique contenant des polyamines (PCD), enrichi en alkylglycérol, et avec une eau contenant du DFMO, • le groupe 2a : aliment synthétique appauvri en polyamines (PDD), • le groupe 2b : aliment synthétique appauvri en polyamines (PDD), et avec une eau contenant du DFMO, • le groupe 2c : aliment synthétique appauvri en polyamines (PDD), enrichi en alkylglycérol, • le groupe 2d : aliment synthétique appauvri en polyamines (PDD), enrichi en alkylglycérol, et avec une eau contenant du DFMO,
L'alkylglycérol est le C 18 :1 (alcool sélachylique) et est mélangé à l'alimentation des souris (25 mg par jour et par souris). Le DFMO est mélangé à l'eau de boisson des souris (30 g/L). […]

[3] = test system: néo vascularisation induite par le Matrigel; assay: Matrigel plug angiogenesis test (haemoglobin content of the gel, VEGF-induced); assay type: in vivo, souris C57BL/5; conditions: PDD
Experimental: Cette figure représente le pourcentage de concentration en hémoglobine dans du Matrigel (BD Biosciences) (en ordonnées), 10 jours après injection dudit Matrigel (500µL) à des souris.
La colonne du centre représente les souris témoins ayant été traitées avec du VEGF. Ces souris ont été greffées avec du Matrigel contenant du VEGF (50 ng/mL). Le pourcentage de concentration en hémoglobine est fixé arbitrairement à 100% et sert de référence pour quantifier les pourcentages des deux autres groupes.
La néo vascularisation induite par le Matrigel est dosée suivant une modification de la méthode de Kimura et al. (Cancer Sci. 2004, 95(9), 758-764). En résumé, tous les animaux ont été traités par injection sous-cutanée de Matrigel (500µL) contenant 32 unités/mL d'héparine et éventuellement 50 ng/mL de VEGF (Vascular Endothelial Growth Factor).
Le modèle animal (souris C57BL/5) et le Matrigel sont décrits précédemment.
Le Matrigel est injecté en sous-cutané (500 µL par injection) à trois groupes de 6 souris : • Groupe 1 : Matrigel sans VEGF, régime alimentaire appauvri en polyamines (PDD). • Groupe 2 : Matrigel avec VEGF, régime alimentaire appauvri en polyamines (PDD). • Groupe 3 : Matrigel avec VEGF, régime alimentaire appauvri en polyamines (PDD), enrichi en alkylglycérol 18 :1 (25 mg par jour et par souris)
Dix jours après injection les souris sont euthanasiées et le Matrigel est prélevé, pesé, photographié. Le Matrigel est ensuite dissocié mécaniquement dans du PBS, homogénéisé puis est mis dans une solution de Drabkin's pour le dosage de l'hémoglobine. Les solutions sont déposées dans des puits d'une plaque 96 puits contenant une solution de Drabkin's et lecture dans un lecteur de plaque à 540 nm.
La concentration en hémoglobine observe dans le Matrigel du groupe 2 est fixé arbitrairement à 100% et sert de référence lors des comparaisons avec les résultats obtenus avec les groupes 1 et 3 (Figure 8).

[4] = régime appauvri en polyamines (PDD), alkylglycérol 18 :1 25 mg / souris / jour and/or DFMO 30 g / L in drinking water, DFMO alone given with huile d'olive
[5] = cyclophosphamide à faible dose (20 mg / kg / semaine), animaux PDD + DFMO (30 g/L)

## NCCCC(N)(C(=O)O)C(F)F (racemic) [DFMO, D,L-2-(difluorométhyl)ornithine, reference compound]
[1]; [4]
  valeur médiane de survie: 35 jours

## CCCCCCCC/C=C\CCCCCCCCOCC(O)CO (stereo not shown) [alkylglycérol 18 :1, alcool sélachylique]
[1]; [4]
  valeur médiane de survie: 30 jours
[1]; régime contenant un taux normal de polyamines (PCD), alkylglycérol 18 :1 25 mg / souris / jour, days after tumour graft
  valeur médiane de survie: 31 jours
[2]; C18 :1 (PCD, régime 4) vs huile d'olive (PCD, régime 3), Figure 4
  différence dans la valeur de survie médiane: Aucune différence significative
[2]; C18 :1 (PDD, régime 2) vs C18 :1 (PCD, régime 4), Figure 7
  différence dans la valeur de survie médiane: Aucune différence significative
[2]; C18 :1 (PDD, régime 2) vs huile d'olive (PCD, régime 3), Figure 5
  différence dans la valeur de survie médiane: Aucune différence significative
[2]; C18 :1 (PDD, régime 2) vs huile d'olive (PDD, régime 1), Figure 3
  différence dans la valeur de survie médiane: Aucune différence significative
[2]; overall conclusion of the four-diet survival study
  influence sur la durée médiane de survie: n'a pas d'influence significative
[2]; régime appauvri en polyamines (PDD, 10 µg / kg d'aliment), alkylglycérol 18 :1 25 mg / souris / jour or huile d'olive
  valeur médiane de survie: 26 jours
[2]; régime contenant des polyamines (PCD, 128 mg / kg d'aliment), alkylglycérol 18 :1 25 mg / souris / jour
  valeur médiane de survie: 26 jours
Carcinome de Lewis; C18 :1 25 mg par jour et par souris added to chemotherapy + PDD + DFMO
  effect of C18 :1 intake on the benefit of chemotherapy: amplifie les effets bénéfiques de la chimiothérapie
[3]; Matrigel with VEGF
  effet anti angiogénique: observé
[3]; Matrigel with VEGF, C18 :1 25 mg par jour et par souris, vs VEGF group
  réduction de l'angiogénèse: ~40%
[3]; relative to VEGF group (50 ng/mL) fixed at 100%, 10 days after injection, alkylglycérol 18 :1 25 mg par jour et par souris, 6 mice
  concentration en hémoglobine dans le Matrigel: 58,56%

## O=P1(N(CCCl)CCCl)NCCCO1 (stereo not shown) [cyclophosphamide]
Carcinome de Lewis; [5]
  dissémination métastatique pulmonaire: efficace
  progression de la greffe tumorale: efficace
